What was measured:
[1] = test system: iPSC-derived CD34+CD45+ HSPCs; assay: ATAC-seq of iPSC-derived CD34+CD45+ HSPCs treated during EHT; type: cell-based, human; conditions: 500 nM or 1 μM during conversion of HE into HSPCs for 5 days, versus DMSO
Procedure: FIGS. 6A-6C are a series of schematics and graphs showing that G9a modulates chromatin accessibility of lymphoid genes. FIG. 6A is a schematic showing the experimental design. FIG. 6B is a heatmap showing assay for transposase-accessible chromatin using sequencing (ATAC-seq) peaks enriched in iPSC-derived CD34+CD45+ HSPCs that were treated with control vehicle (“DMSO”), 500 nM of UNC0224 (“UNC low”), or 1 μM of UNC0224 (“UNC high”) during the conversion of CD34+CD45− HE into CD34+CD45+ HSPCs for 5 days; 5 peaks are shown, labeled K1-K5.
FIGS. 6A-6C show the mechanism by which G9a (EHMT2) regulates lymphoid fate decision in iPSC-derived HSPCs (iPSC-HSPCs). The iPSCs were first differentiated into CD34+ HEs, and the cells were then treated with DMSO or G9a inhibitor UNC0224 during the EHT stage, which allowed the HEs to specify into CD34+CD45+ HSPCs. ATAC-seq analysis was then performed on these iPSC-HSPCs to detect ATAC peaks that indicated accessible chromatin regions (as indicated by higher ATAC-seq scores).

iPSC-derived EHT cells = assay: RNA-seq of G9a-inhibitor treated EHT cells, PANTHER overrepresentation test; type: cell-based, human; conditions: for Client Text Box Input (fold Enrichment): UNC0224 treated vs control EHT cells
Procedure: RNA-seq analysis was performed on the same samples as in FIG. 6A.

MDA-MB-231 cells = conditions: in MDA-MB-231 cells; cited from earlier work
[2] = test system: class I HDAC (e.g., HDAC1, HDAC2, HDAC3); conditions: cited from earlier work
G9a (EHMT2) = assay: Stroma-free NK cell differentiation with CRISPRi G9a (EHMT2) knockdown; type: cell-based, human; conditions: G9a knockdown by Dox induced CRISPRi for 14 days, representative flow cytometry plot
Excerpt: FIGS. 5A-5C are a series of schematics and graphs showing that G9a (also referred to herein as EHMT2) repression promoted NK cell differentiation. FIG. 5A is a schematic showing the experimental design. FIG. 5B is representative flow cytometry results showing the production of CD5-CD56+NK cells from control iPSCs or iPSCs with EHMT2 (G9a) knockdown by doxycycline (Dox) induced CRISPRi (see, e.g., SEQ ID NO: 50) for 14 days. […] FIG. 5C is a dot pot showing the frequencies of CD5-CD56+NK cells derived from control iPSCs or iPSCs with EHMT2 (G9a) knockdown (n=3, * P<0.05).
The iPSCs were then differentiated into CD34+HE cells and treated with Dox to induce G9a knockdown. The control or Dox treated cells were then differentiated into CD7+ lymphoid progenitors and eventually CD5-CD56+NK cells using the stroma-free methods described herein (see, e.g., Table 1).

[3] = test system: iPS-derived CD34+ hemogenic endothelial cells; assay: Stroma-free differentiation on DLL4-coated plates; type: cell-based, human
Procedure: FIG. 2 is a series of flow cytometry plot showing cells produced from a stroma-free differentiation protocol, which can be used to more specifically generate T or NK cells after 5 weeks. The culture conditions for T cells included: (i) EB-derived CD34^+ hemogenic endothelium (HE) on DLL4 coating (10 μg/ml), and (ii) IL-7 (50 ng/ml), SCF (100 ng/ml), Flt3 (100 ng/ml), and TPO (50 ng/ml, first 2 weeks). For more details concerning the stroma-free T cell differentiation protocol, see, e.g., International PCT publication WO 2021/150919, the content of which is incorporated herein by reference in its entirety. The culture conditions for NK cells included: EB-derived CD34^+ hemogenic endothelium (HE) on DLL4 coating (5 μg/ml), IL7 (10 ng/ml), SCF (50 ng/ml), and Flt3 (50 ng/ml).
Hemogenic CD34^+ endothelial cells were first derived from iPS (Example 2). The iPS-derived CD34^+ hemogenic endothelial cells were cultured on tissue culture plates coated with Notch ligands (e.g., DLL4; e.g., 5 μg/ml or 10 μg/ml in PBS, 3 hours in room temperature) using media containing a cocktail of growth factors (e.g., Flt3, SCF, IL7). […]

COc1cc2c(NC3CCN(C)CC3)nc(N3CCCN(C)CC3)nc2cc1OCCCN(C)C [UNC0224]
ATAC-seq peaks upregulated in treated cells [1]: associated with genes that are responsible for lymphoid differentiation/function | Client Text Box Input (fold Enrichment) (iPSC-derived EHT cells; B cell mediated immunity (GO:0019724)): 7.3 | Client Text Box Input (fold Enrichment) (iPSC-derived EHT cells; T cell activation (GO:0042110)): 14.53 | Client Text Box Input (fold Enrichment) (iPSC-derived EHT cells; T cell differentiation (GO:0030217)): 18.46 | Client Text Box Input (fold Enrichment) (iPSC-derived EHT cells; adaptive immune response (GO:0002250)): 6.79 | Client Text Box Input (fold Enrichment) (iPSC-derived EHT cells; adaptive immune response based on somatic recombination of immune receptors built from immunoglobulin superfamily domains (GO:0002460)): 7.89 | Client Text Box Input (fold Enrichment) (iPSC-derived EHT cells; antigen processing and presentation (GO:0019882)): 29.42 | Client Text Box Input (fold Enrichment) (iPSC-derived EHT cells; cell activation (GO:0001775)): 5.69 | Client Text Box Input (fold Enrichment) (iPSC-derived EHT cells; cell-cell adhesion (GO:0098609)): 4.83 | Client Text Box Input (fold Enrichment) (iPSC-derived EHT cells; cellular component assembly (GO:0022607)): 2.21 | Client Text Box Input (fold Enrichment) (iPSC-derived EHT cells; cellular component biogenesis (GO:0044085)): 2.44 | Client Text Box Input (fold Enrichment) (iPSC-derived EHT cells; cellular component organization or biogenesis (GO:0071840)): 1.63 | Client Text Box Input (fold Enrichment) (iPSC-derived EHT cells; cellular protein-containing complex assembly (GO:0034622)): 4.21 | Client Text Box Input (fold Enrichment) (iPSC-derived EHT cells; gene expression (GO:0010467)): 1.58 | Client Text Box Input (fold Enrichment) (iPSC-derived EHT cells; immune effector process (GO:0002252)): 6.63 | Client Text Box Input (fold Enrichment) (iPSC-derived EHT cells; immune response (GO:0006955)): 2.87 | Client Text Box Input (fold Enrichment) (iPSC-derived EHT cells; immune system process (GO:0002376)): 2.61 | Client Text Box Input (fold Enrichment) (iPSC-derived EHT cells; immunoglobulin mediated immune response (GO:0016064)): 7.3 | Client Text Box Input (fold Enrichment) (iPSC-derived EHT cells; leukocyte activation (GO:0045321)): 6.09 | Client Text Box Input (fold Enrichment) (iPSC-derived EHT cells; leukocyte cell-cell adhesion (GO:0007159)): 15.11 | Client Text Box Input (fold Enrichment) (iPSC-derived EHT cells; leukocyte mediated immunity (GO:0002443)): 7.27 | Client Text Box Input (fold Enrichment) (iPSC-derived EHT cells; lymphocyte activation (GO:0046649)): 6.42 | Client Text Box Input (fold Enrichment) (iPSC-derived EHT cells; lymphocyte mediated immunity (GO:0002449)): 7.62 | Client Text Box Input (fold Enrichment) (iPSC-derived EHT cells; positive regulation of T cell activation (GO:0050870)): 22.09 | Client Text Box Input (fold Enrichment) (iPSC-derived EHT cells; positive regulation of biological process (GO:0048518)): 2.02 | Client Text Box Input (fold Enrichment) (iPSC-derived EHT cells; positive regulation of cell activation (GO:0050867)): 6.29 | Client Text Box Input (fold Enrichment) (iPSC-derived EHT cells; positive regulation of cell adhesion (GO:0045785)): 17.95 | Client Text Box Input (fold Enrichment) (iPSC-derived EHT cells; positive regulation of cell-cell adhesion (GO:0022409)): 21.54 | Client Text Box Input (fold Enrichment) (iPSC-derived EHT cells; positive regulation of cellular process (GO:0048522)): 2.11 | Client Text Box Input (fold Enrichment) (iPSC-derived EHT cells; positive regulation of immune system process (GO:0002684)): 5.43 | Client Text Box Input (fold Enrichment) (iPSC-derived EHT cells; positive regulation of leukocyte activation (GO:0002696)): 6.29 | Client Text Box Input (fold Enrichment) (iPSC-derived EHT cells; positive regulation of leukocyte cell-cell adhesion (GO:1903039)): 22.09 | Client Text Box Input (fold Enrichment) (iPSC-derived EHT cells; positive regulation of lymphocyte activation (GO:0051251)): 6.53 | Client Text Box Input (fold Enrichment) (iPSC-derived EHT cells; production of molecular mediator of immune response (GO:0002440)): 7.58 | Client Text Box Input (fold Enrichment) (iPSC-derived EHT cells; protein-containing complex assembly (GO:0065003)): 3.99 | Client Text Box Input (fold Enrichment) (iPSC-derived EHT cells; protein-containing complex subunit organization (GO:0043933)): 3.43 | Client Text Box Input (fold Enrichment) (iPSC-derived EHT cells; regulation of T cell activation (GO:0050863)): 16.25 | Client Text Box Input (fold Enrichment) (iPSC-derived EHT cells; regulation of cell activation (GO:0050865)): 5.42 | Client Text Box Input (fold Enrichment) (iPSC-derived EHT cells; regulation of cell adhesion (GO:0030155)): 10.77 | Client Text Box Input (fold Enrichment) (iPSC-derived EHT cells; regulation of cell-cell adhesion (GO:0022407)): 15.11 | Client Text Box Input (fold Enrichment) (iPSC-derived EHT cells; regulation of immune system process (GO:0002682)): 4.07 | Client Text Box Input (fold Enrichment) (iPSC-derived EHT cells; regulation of leukocyte activation (GO:0002694)): 5.49 | Client Text Box Input (fold Enrichment) (iPSC-derived EHT cells; regulation of leukocyte cell-cell adhesion (GO:1903037)): 16.89 | Client Text Box Input (fold Enrichment) (iPSC-derived EHT cells; regulation of lymphocyte activation (GO:0051249)): 5.82 | RNA-seq gene expression change (iPSC-derived EHT cells; treated versus control EHT cells): upregulation of genes associated with lymphoid development and function

COc1cc2c(NC3CCN(CC4CCCCC4)CC3)nc(N3CCCN(C(C)C)CC3)nc2cc1OCCCN1CCCCC1 [UNC0631]
IC50 (MDA-MB-231 cells): 25 nM

Cn1cc(/C=C/C(=O)c2cccc(F)c2)cc1/C=C/C(=O)NO [MC1568]
inhibition of class I HDAC activity [2]: Class II HDAC (e.g., HDAC4 and HDAC5) inhibitor. Displays no inhibition of class I HDAC activity (e.g., HDAC1, HDAC2, HDAC3).

SEQ ID NO: 50: G9a CRISPRi gRNA: AATGGCCAAAAAGCATGTAG (chemistry not given here)
CD5-CD56+NK cells (G9a (EHMT2)): 64.7%

DLL4: Notch ligand Delta-like-4, coated on tissue culture plates
lineage outcome of differentiation ([3]; higher concentration of DLL4 coating (e.g., 10 μg/ml)): promotes T cell differentiation | lineage outcome of differentiation ([3]; lower concentration of DLL4 coating (e.g., 5 μg/ml)): facilitates the generation of CD56^+ NK cells

COc1cc2c(NC3CCN(C4CCCCC4)CC3)nc(N3CCCN(C(C)C)CC3)nc2cc1OCCCN1CCCCC1 [UNC0646]
IC50 (MDA-MB-231 cells): 26 nM

Source: US20240158750A1, “STROMA-FREE NK CELL DIFFERENTIATION FROM HUMAN PLURIPOTENT STEM CELLS” (The Children's Medical Center Corporation, priority 2021, published 2024)
